According to patent US9421209B2, “Kinase modulators” (Rhizen Pharmaceuticals SA, priority 2009, dated 2016):
Where two headings read alike, the source gives them in different places.

Columns and labels:
P110β = P110β (Homo sapiens, UniProt P42338); experiment: Fluorescent (HTRF) determination of PI3K enzyme activity, β isoform; assay type: biochemical
Description: Assay 1: Fluorescent determination of PI3Kinase Kinase enzyme activity
Phosphoinositide 3 kinases (PI3K) belong to a class of lipid kinases that play a critical role in the regulation of several key cellular processes. The PI3K are capable of phosphorylating the 3-hydroxy position of phosphoinositols thereby generating second messengers involved in downstream signalling events. The homogenous time resolved fluorescence (HTRF) assay allows detection of 3,4,5-triphosphate (PIP3) formed as a result of phosphorylation of phosphotidylinositol 4,5-biphosphate (PIP2) by PI3K isoforms such as α, β, γ or δ.
PI3K isoform activity for α, β, γ or δ was determined using a PI3K human HTRF™ Assay Kit (Millipore, Billerica, Mass.) with modifications. All incubations were carried out at room temperature. Briefly, 0.5 μl of 40× inhibitor (in 100% DMSO) or 100% DMSO were added to each well of a 384-well black plate (Greiner Bio-One, Monroe, N.C.) containing 14.5 μl 1× reaction buffer/PIP2 (10 mM MgCl2, 5 mM DTT, 1.38 μM PIP2) mix with or without enzyme and incubated for 10 min. After the initial incubation, 5 μl/well of 400 μM ATP was added and incubated for an additional 30 minutes. Reaction was terminated by adding 5 μl/well stop solution (Millipore, Billerica, Mass.). Five microliters of detection mix (Millipore, Billerica, Mass.) were then added to each well and was incubated for 6-18 h in the dark. HRTF ratio was measured on a microplate reader (BMG Labtech., Germany) at an excitation wavelength of 337 nm and emission wavelengths of 665 and 620 nm with an integration time of […]. Data were analyzed using Graphpad Prism (Graphpad software; San Diego Calif.) for IC50 determination. Percent inhibition was calculated based on the values for the blank and enzyme controls. The results are provided below in Table 2 & 3.

P110 δ/Pi3K δ = P110 δ/Pi3K δ (Homo sapiens, UniProt O00329); experiment: Fluorescent (HTRF) determination of PI3K enzyme activity, δ isoform; assay type: biochemical; design: inhibition: dose or concentration left out as unconfirmed
Summary of the method: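 HTRF kit detecting PIP3 formed from PIP2 by human PI3Kδ, at room temperature. Reaction started with 400 μM ATP (addition concentration) for 30 min, then stopped, and detection mix incubated 6–18 h in the dark. Percent inhibition taken against blank and enzyme controls, and IC50 fitted.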

Sequence of P110β (P42338 whole entry, canonical isoform): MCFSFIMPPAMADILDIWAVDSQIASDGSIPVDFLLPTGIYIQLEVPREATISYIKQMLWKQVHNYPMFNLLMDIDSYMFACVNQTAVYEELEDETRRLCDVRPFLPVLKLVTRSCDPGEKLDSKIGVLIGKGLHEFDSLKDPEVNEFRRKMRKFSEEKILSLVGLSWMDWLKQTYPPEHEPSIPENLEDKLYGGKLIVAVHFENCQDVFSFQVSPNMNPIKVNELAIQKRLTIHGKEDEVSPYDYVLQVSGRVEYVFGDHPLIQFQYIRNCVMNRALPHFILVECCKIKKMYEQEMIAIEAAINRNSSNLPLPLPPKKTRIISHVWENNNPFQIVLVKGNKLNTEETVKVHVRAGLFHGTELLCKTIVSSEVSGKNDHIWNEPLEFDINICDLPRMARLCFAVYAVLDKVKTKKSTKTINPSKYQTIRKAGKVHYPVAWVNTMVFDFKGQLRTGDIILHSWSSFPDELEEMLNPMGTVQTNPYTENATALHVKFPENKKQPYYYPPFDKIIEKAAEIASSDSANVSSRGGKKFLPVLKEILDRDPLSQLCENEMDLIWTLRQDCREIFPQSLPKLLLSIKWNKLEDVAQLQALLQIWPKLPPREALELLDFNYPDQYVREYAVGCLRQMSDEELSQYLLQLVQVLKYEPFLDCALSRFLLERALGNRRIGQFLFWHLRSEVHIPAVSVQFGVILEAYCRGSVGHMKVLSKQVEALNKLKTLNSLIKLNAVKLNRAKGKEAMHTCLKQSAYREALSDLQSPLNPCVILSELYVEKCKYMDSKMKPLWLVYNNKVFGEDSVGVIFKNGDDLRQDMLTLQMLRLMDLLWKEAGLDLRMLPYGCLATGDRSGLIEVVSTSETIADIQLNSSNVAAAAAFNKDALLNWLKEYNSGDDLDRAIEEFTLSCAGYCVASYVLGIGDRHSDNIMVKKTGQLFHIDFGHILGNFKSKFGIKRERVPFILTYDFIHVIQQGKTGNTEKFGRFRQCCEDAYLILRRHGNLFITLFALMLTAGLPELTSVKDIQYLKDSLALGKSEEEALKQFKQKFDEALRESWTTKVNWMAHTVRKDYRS
Sequence of P110β (P27986 whole entry partner, canonical isoform): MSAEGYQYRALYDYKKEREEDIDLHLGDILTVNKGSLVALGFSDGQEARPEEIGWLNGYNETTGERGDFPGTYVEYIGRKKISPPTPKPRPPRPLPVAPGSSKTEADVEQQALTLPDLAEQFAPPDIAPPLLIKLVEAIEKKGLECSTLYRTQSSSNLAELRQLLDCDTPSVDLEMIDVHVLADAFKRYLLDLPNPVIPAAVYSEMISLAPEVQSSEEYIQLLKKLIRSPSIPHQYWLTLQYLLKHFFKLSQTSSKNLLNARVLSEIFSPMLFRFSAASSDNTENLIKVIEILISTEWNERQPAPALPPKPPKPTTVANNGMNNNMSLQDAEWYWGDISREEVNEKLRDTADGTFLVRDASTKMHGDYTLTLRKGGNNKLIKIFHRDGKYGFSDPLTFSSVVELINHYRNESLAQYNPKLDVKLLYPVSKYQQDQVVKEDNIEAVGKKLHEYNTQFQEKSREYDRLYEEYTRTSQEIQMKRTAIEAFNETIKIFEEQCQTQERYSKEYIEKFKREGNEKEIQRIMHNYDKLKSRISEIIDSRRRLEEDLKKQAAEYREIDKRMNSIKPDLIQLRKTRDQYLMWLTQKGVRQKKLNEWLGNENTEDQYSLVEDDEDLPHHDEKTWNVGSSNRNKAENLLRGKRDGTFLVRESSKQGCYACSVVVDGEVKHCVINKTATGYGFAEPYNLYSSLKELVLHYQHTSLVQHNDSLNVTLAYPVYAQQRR
Sequence of P110 δ/Pi3K δ (O00329 whole entry, canonical isoform): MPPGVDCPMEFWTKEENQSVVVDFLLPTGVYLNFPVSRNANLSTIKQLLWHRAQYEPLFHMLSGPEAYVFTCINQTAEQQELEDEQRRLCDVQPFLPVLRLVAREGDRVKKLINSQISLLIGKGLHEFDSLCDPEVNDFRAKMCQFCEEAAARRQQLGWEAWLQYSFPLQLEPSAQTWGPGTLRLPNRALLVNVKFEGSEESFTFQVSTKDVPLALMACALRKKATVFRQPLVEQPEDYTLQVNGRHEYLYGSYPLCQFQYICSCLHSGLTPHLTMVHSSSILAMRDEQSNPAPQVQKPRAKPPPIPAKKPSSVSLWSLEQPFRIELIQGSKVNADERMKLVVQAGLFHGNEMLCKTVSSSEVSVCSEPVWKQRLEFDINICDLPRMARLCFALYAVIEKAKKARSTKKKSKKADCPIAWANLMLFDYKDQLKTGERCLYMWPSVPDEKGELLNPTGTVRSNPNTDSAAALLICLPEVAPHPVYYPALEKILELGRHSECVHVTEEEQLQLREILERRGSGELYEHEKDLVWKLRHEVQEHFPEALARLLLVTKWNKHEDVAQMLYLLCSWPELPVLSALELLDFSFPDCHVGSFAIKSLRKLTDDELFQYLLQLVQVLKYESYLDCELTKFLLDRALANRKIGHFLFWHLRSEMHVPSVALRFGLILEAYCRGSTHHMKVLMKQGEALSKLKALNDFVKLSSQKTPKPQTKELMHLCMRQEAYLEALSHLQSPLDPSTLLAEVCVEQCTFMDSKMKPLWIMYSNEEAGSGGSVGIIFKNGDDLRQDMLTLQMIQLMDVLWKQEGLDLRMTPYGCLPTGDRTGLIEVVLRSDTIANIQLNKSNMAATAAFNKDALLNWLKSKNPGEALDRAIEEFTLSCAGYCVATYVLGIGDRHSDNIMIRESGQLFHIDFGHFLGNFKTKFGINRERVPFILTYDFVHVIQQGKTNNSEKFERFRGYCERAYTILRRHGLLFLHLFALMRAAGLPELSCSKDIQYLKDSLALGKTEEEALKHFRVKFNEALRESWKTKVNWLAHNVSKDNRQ
Sequence of P110 δ/Pi3K δ (P27986 whole entry partner, canonical isoform): as the sequence (P27986 whole entry partner, canonical isoform) above

Cc1n[nH]c2cc(-c3nn([C@H](C)c4oc5ccccc5c(=O)c4-c4cccc(F)c4)c4ncnc(N)c34)ccc12 (single isomer, unassigned) [Example 129, (−)-2-(1-(4-amino-3-(3-methyl-1H-indazol-6-yl)-1H-pyrazolo[3,4-d]pyrimidin-1-yl)ethyl)-3-(3-fluorophenyl)-4H-chromen-4-one]
% inhibition (1 μM) P110β (P110β; 1 µM): ++ (++ is less than equal to 50% inhibition but more than equal to 25% at 1 μM)
melting point: 157 to 160 °C
IC50 (P110 δ/Pi3K δ; read-out: P110 δ/ Pi3K δ IC 50 nM): > 500 nM

O=c1c(-c2ccc(F)cc2)c(CN2CCOCC2)oc2ccc(Br)cc12 [Example 17, 6-Bromo-3-(4-fluorophenyl)-2-(morpholinomethyl)-4H-chromen-4-one]
inhibition at 1 µM (P110β): < 25%

CC(c1oc2ccccc2c(=O)c1-c1cccc(F)c1)n1nc(-c2csc(C=O)c2)c2c(N)ncnc21 (stereo not shown) [Example 113, 4-(4-amino-1-(1-(3-(3-fluorophenyl)-4-oxo-4H-chromen-2-yl)ethyl)-1H-pyrazolo[3,4-d]pyrimidin-3-yl)thiophene-2-carbaldehyde]
inhibition at 1 µM (P110β): < 25%
melting point: 192 to 195 °C
inhibition (P110 δ/Pi3K δ): 50 to 100%

CC(c1oc2ccccc2c(=O)c1-c1cccc(F)c1)n1nc(-c2csc(CO)c2)c2c(N)ncnc21 (stereo not shown) [Example 114, 2-(1-(4-amino-3-(5-(hydroxymethyl)thiophen-3-yl)-1H-pyrazolo[3,4-d]pyrimidin-1-yl)ethyl)-3-(3-fluorophenyl)-4H-chromen-4-one]
inhibition at 1 µM (P110β): < 25%
melting point: 154 to 156 °C
inhibition (P110 δ/Pi3K δ): 50 to 100%

Cc1c[nH]c2cc(-c3nn(C(C)c4oc5ccccc5c(=O)c4-c4cccc(F)c4)c4ncnc(N)c34)ccc12 (stereo not shown) [Example 117, 2-(1-(4-amino-3-(3-methyl-1H-indol-6-yl)-1H-pyrazolo[3,4-d]pyrimidin-1-yl)ethyl)-3-(3-fluorophenyl)-4H-chromen-4-one]
% inhibition (1 μM) P110β (P110β): + (+ is less than equal to 25% inhibition at 1 μM)
melting point: 262 to 265 °C
P110 δ/ Pi3K δ % inhibition* (P110 δ/Pi3K δ; @ 0.3 uM): ++ (++ is less than equal to 100% inhibition but more than equal to 50% at 1 μM)

O=c1c(-c2cccc(F)c2)c(CNc2ncnc3[nH]cnc23)oc2ccc(F)cc12 [Example 122, 2-((9H-purin-6-ylamino)methyl)-6-fluoro-3-(3-fluorophenyl)-4H-chromen-4-one]
inhibition at 1 µM (P110β): 50 to 100%
melting point: 229 to 232 °C
inhibition (P110 δ/Pi3K δ): < 50%

O=c1c(-c2ccccc2)c(CNc2ncnc3[nH]cnc23)oc2ccc(F)cc12 [Example 123, 2-((9H-purin-6-ylamino)methyl)-6-fluoro-3-phenyl-4H-chromen-4-one]
inhibition at 1 µM (P110β): < 25%
melting point: 183 to 186 °C
inhibition (P110 δ/Pi3K δ): < 50%

COc1c(F)cc(-c2nn(C(C)c3oc4ccccc4c(=O)c3-c3cccc(F)c3)c3ncnc(N)c23)cc1F (stereo not shown) [Example 126, 2-(1-(4-amino-3-(3,5-difluoro-4-methoxyphenyl)-1H-pyrazolo[3,4-d]pyrimidin-1-yl)ethyl)-3-(3-fluorophenyl)-4H-chromen-4-one]
inhibition at 1 µM (P110β): < 25%

COc1c(F)cc(-c2nn(Cc3oc4ccc(F)cc4c(=O)c3-c3cccc(F)c3)c3ncnc(N)c23)cc1F [Example 127, 2-((4-amino-3-(3,5-difluoro-4-methoxyphenyl)-1H-pyrazolo[3,4-d]pyrimidin-1-yl)methyl)-6-fluoro-3-(3-fluorophenyl)-4H-chromen-4-one]
inhibition at 1 µM (P110β): 50 to 100%

CC(c1oc2ccccc2c(=O)c1-c1cccc(F)c1)n1nc(-c2cnn(Cc3ccccc3)c2)c2c(N)ncnc21 (stereo not shown) [Example 134, 2-(1-(4-amino-3-(1-benzyl-1H-pyrazol-4-yl)-1H-pyrazolo[3,4-d]pyrimidin-1-yl)ethyl)-3-(3-fluorophenyl)-4H-chromen-4-one]
inhibition at 1 µM (P110β): 25 to 50%
melting point: 140 to 142 °C
inhibition (P110 δ/Pi3K δ): < 50%

Cc1cc(-c2nn(C(C)c3oc4ccccc4c(=O)c3-c3cccc(F)c3)c3ncnc(N)c23)ccn1 (stereo not shown) [Example 135, 2-(1-(4-amino-3-(2-methylpyridin-4-yl)-1H-pyrazolo[3,4-d]pyrimidin-1-yl)ethyl)-3-(3-fluorophenyl)-4H-chromen-4-one]
inhibition at 1 µM (P110β): 25 to 50%
melting point: 266 to 268 °C
inhibition (P110 δ/Pi3K δ): < 50%

CC(c1oc2ccccc2c(=O)c1-c1cccc(F)c1)n1nc(-c2cccc3c2oc2ccccc23)c2c(N)ncnc21 (stereo not shown) [Example 138, 2-(1-(4-amino-3-(dibenzo[b,d]furan-4-yl)-1H-pyrazolo[3,4-d]pyrimidin-1-yl)ethyl)-3-(3-fluorophenyl)-4H-chromen-4-one]
inhibition at 1 µM (P110β): 25 to 50%
melting point: 238 to 240 °C

Cc1c2ccc(-c3nn(C(C)c4oc5ccccc5c(=O)c4-c4cccc(F)c4)c4ncnc(N)c34)cc2nn1C (stereo not shown) [Example 171, 2-(1-(4-amino-3-(2,3-dimethyl-2H-indazol-6-yl)-1H-pyrazolo[3,4-d]pyrimidin-1-yl)ethyl)-3-(3-fluorophenyl)-4H-chromen-4-one]
melting point: 269 to 274 °C
inhibition (P110 δ/Pi3K δ): < 50%

COc1ccc2cc(-c3nn(C(C)c4oc5ccccc5c(=O)c4-c4cccc(F)c4)c4ncnc(N)c34)ccc2c1 (stereo not shown) [Example 172, 2-(1-(4-amino-3-(6-methoxynaphthalen-2-yl)-1H-pyrazolo[3,4-d]pyrimidin-1-yl)ethyl)-3-(3-fluorophenyl)-4H-chromen-4-one]
melting point: 285 to 287 °C
inhibition (P110 δ/Pi3K δ): < 50%

CC(c1oc2ccccc2c(=O)c1-c1cccc(F)c1)n1nc(-c2csc3ccccc23)c2c(N)ncnc21 (stereo not shown) [Example 173, 2-(1-(4-amino-3-(benzo[b]thiophen-3-yl)-1H-pyrazolo[3,4-d]pyrimidin-1-yl)ethyl)-3-(3-fluorophenyl)-4H-chromen-4-one]
melting point: 226 to 229 °C
inhibition (P110 δ/Pi3K δ): 50 to 100%

CC(c1oc2ccccc2c(=O)c1-c1cccc(F)c1)n1nc(-c2cccc(C(=O)NC3CC3)c2)c2c(N)ncnc21 (stereo not shown) [Example 176, 3-(4-amino-1-(1-(3-(3-fluorophenyl)-4-oxo-4H-chromen-2-yl)ethyl)-1H-pyrazolo[3,4-d]pyrimidin-3-yl)-N-cyclopropylbenzamide]
melting point: 127 to 132 °C
inhibition (P110 δ/Pi3K δ): < 50%

CC(c1oc2ccccc2c(=O)c1-c1cccc(F)c1)n1nc(-c2cccc(C(=O)N3CCOCC3)c2)c2c(N)ncnc21 (stereo not shown) [Example 177, 2-(1-(4-amino-3-(3-(morpholine-4-carbonyl)phenyl)-1H-pyrazolo[3,4-d]pyrimidin-1-yl)ethyl)-3-(3-fluorophenyl)-4H-chromen-4-one]
melting point: 104 to 106 °C
inhibition (P110 δ/Pi3K δ): < 50%

CC(c1oc2ccccc2c(=O)c1-c1cccc(F)c1)n1nc(-c2cccc(OC(F)F)c2)c2c(N)ncnc21 (stereo not shown) [Example 178, 2-(1-(4-amino-3-(3-(difluoromethoxy)phenyl)-1H-pyrazolo[3,4-d]pyrimidin-1-yl)ethyl)-3-(3-fluorophenyl)-4H-chromen-4-one]
melting point: 176 to 179 °C
inhibition (P110 δ/Pi3K δ): 50 to 100%

CC(c1oc2ccccc2c(=O)c1-c1cccc(F)c1)n1nc(-c2ccc(C=O)o2)c2c(N)ncnc21 (stereo not shown) [Example 179, 5-(4-amino-1-(1-(3-(3-fluorophenyl)-4-oxo-4H-chromen-2-yl)ethyl)-1H-pyrazolo[3,4-d]pyrimidin-3-yl)furan-2-carbaldehyde]
melting point: 215 to 217 °C
inhibition (P110 δ/Pi3K δ): 50 to 100%
